{"source": "patent US20030170309A1", "about": "“Pharmaceutical compositions containing polymer and drug assemblies” (priority 2001, published 2003)", "key": {"[1]": {"assay": "Dissolution test of amorphous Drug 1 in PBS with varying HPMCAS-MF concentration", "assay_type": "physicochemical", "conditions": "amorphous Drug 1 10 mg/mL added, PBS 37°C", "procedure": "First, HPMCAS-MF was dissolved in PBS with stirring at 37° C. and 1.5 mL of this solution was placed in a microcentrifuge tube."}, "[2]": {"assay": "Solubility of the drug alone (crystalline or amorphous)", "conditions": "for solubility: thermodynamic from solid"}, "[3]": {"assay_type": "physicochemical", "procedure": "To determine the composition of the polymer/drug assemblies, solutions formed from the dispersions of Example 30 and Example 31 in PBS were analyzed using HPLC and NMR, as described in Example 4. […] To measure the free drug concentration using NMR, 2 wt % NaTC/POPC was added to the solution. By measuring the amount of drug that partitioned into NaTC/POPC micelles, the concentration of free drug in PBS was calculated using the equation: […]\nwhere DM is the concentration of drug in micelles (measured by NMR), Kp is the partition coefficient for drug partitioning between water and micelles (30,000), Df is the free drug concentration in PBS, and VM is the volume ratio occupied by micelles in the PBS solution (cm^3 micelles/cm^3 solution=0.021). […] The amount of polymer contained in the polymer/drug assemblies was calculated by subtracting the free polymer and the polymer in the precipitate from the total polymer added to solution (contained in the solid dispersions). […]\nThe dispersions of Examples 30 and 31 were added to PBS with varying amounts of NaTC/POPC, and the concentration of drug in NaTC/POPC micelles was measured by NMR spectroscopy. […]\nThe free drug concentration with no micelles present was calculated as follows. […]\nAqueous solutions formed from the solid dispersion of Example 40 were analyzed using DLS and NMR, as described in Examples 3 and 4. […]"}, "[4]": {"conditions": "rats, colloidal solution; cited from earlier work"}, "[5]": {"conditions": "dispersion of YM022 in HPMC and polyoxyethylene hydrogenated castor oil administered to aqueous solution; cited from earlier work"}, "[6]": {"conditions": "HPMCAS-MF 0 mg/mL (amorphous drug alone)"}}, "data": [{"smiles": "O=C(N[C@@H](Cc1ccccc1)[C@@H](O)C(=O)N1C[C@@H](O)[C@@H](O)C1)c1cc2cc(Cl)ccc2[nH]1", "note": "[Drug 1, 5-chloro-1H-indole-2-carboxylic acid [(1S)-benzyl-3-((3R, 4S)-dihydroxypyrroldin-1-yl-)-(2R)-hydroxy-3-oxypropyl] amide]", "values": [{"measurement": "HPLC Total Dissolved Drug 1 at 90 min.", "setting": "[1]; [6]", "result": 224, "unit": "µg/mL"}, {"measurement": "HPLC Total Dissolved Drug 1 at 1200 min.", "setting": "[1]; [6]", "result": 196, "unit": "µg/mL"}, {"measurement": "HPLC Total Dissolved Drug 1 at 90 min.", "setting": "[1]; HPMCAS-MF 0.5 mg/mL", "result": 447, "unit": "µg/mL"}, {"measurement": "HPLC Total Dissolved Drug 1 at 1200 min.", "setting": "[1]; HPMCAS-MF 0.5 mg/mL", "result": 289, "unit": "µg/mL"}, {"measurement": "HPLC Total Dissolved Drug 1 at 90 min.", "setting": "[1]; HPMCAS-MF 1 mg/mL", "result": 487, "unit": "µg/mL"}, {"measurement": "HPLC Total Dissolved Drug 1 at 1200 min.", "setting": "[1]; HPMCAS-MF 1 mg/mL", "result": 203, "unit": "µg/mL"}, {"measurement": "HPLC Total Dissolved Drug 1 at 90 min.", "setting": "[1]; HPMCAS-MF 5 mg/mL", "result": 4928, "unit": "µg/mL"}, {"measurement": "HPLC Total Dissolved Drug 1 at 1200 min.", "setting": "[1]; HPMCAS-MF 5 mg/mL", "result": 1550, "unit": "µg/mL"}, {"measurement": "HPLC Total Dissolved Drug 1 at 90 min.", "setting": "[1]; HPMCAS-MF 10 mg/mL", "result": 7453, "unit": "µg/mL"}, {"measurement": "HPLC Total Dissolved Drug 1 at 1200 min.", "setting": "[1]; HPMCAS-MF 10 mg/mL", "result": 5431, "unit": "µg/mL"}, {"measurement": "HPLC Total Dissolved Drug 1 at 90 min.", "setting": "[1]; HPMCAS-MF 20 mg/mL", "result": 8099, "unit": "µg/mL"}, {"measurement": "HPLC Total Dissolved Drug 1 at 1200 min.", "setting": "[1]; HPMCAS-MF 20 mg/mL", "result": 7451, "unit": "µg/mL"}]}, {"smiles": "CCOC(=O)N1c2ccc(C(F)(F)F)cc2C(N(Cc2cc(C(F)(F)F)cc(C(F)(F)F)c2)C(=O)OC)CC1CC", "note": "(stereo not drawn) [Drug 2, 4-[(3,5-bis-trifluoromethyl-benzyl)-methoxycarbonyl-amino]-2-ethyl-6-trifluoromethyl-3,4-dihydro-2H-quinoline-1-carboxylic acid ethyl ester]", "values": [{"measurement": "solubility", "setting": "[2]; PBS with 2% NaTC/POPC, fassgf or other biorelevant, Solubility of crystalline Drug 2 in 2% NaTC/POPC in PBS, 2% NaTC/POPC in PBS", "result": 6, "unit": "µg/mL"}, {"measurement": "solubility", "setting": "[2]; PBS, Solubility of the crystalline Drug 2", "result": 0.01, "unit": "µg/mL"}, {"measurement": "solubility", "setting": "[2]; aqueous solution without micelles, Solubility of Drug 2 in aqueous solution without micelles, crystalline Drug 2, separate experiments", "result": "~0.01", "unit": "µg/mL"}, {"measurement": "Solubility of Drug 2 in aqueous solution without micelles", "setting": "[2]; crystalline Drug 2, separate experiments", "result": "approximately 0.010 μg/mL"}, {"measurement": "Kp, partition coefficient for drug partitioning between water and micelles", "setting": "[3]", "result": "30,000"}, {"measurement": "Drug 2 Concentration, NaTC/POPC Conc. 0 wt %", "setting": "[3]; crystalline Drug 2, value obtained in a separate experiment", "result": 0.01, "unit": "µg/mL"}]}, {"smiles": "Cc1ncccc1CNC(=O)c1ccc2c(c1)CC[C@@H]1C[C@@](O)(CCC(F)(F)F)CC[C@@]21Cc1ccccc1", "note": "[Drug 3, 2-phenanthrenecarboxamide, 4b,5,6,7,8,8a,9,10-octahydro-7-hydroxy-N-[(2-methyl-3-pyridinyl)methyl]-4b-(phenylmethyl)-7-(3,3,3-trifluoropropyl)-, (4bS,7S,8aR)-]", "values": [{"measurement": "solubility", "setting": "[2]; Solubility of Drug 3, crystalline Drug 3", "result": 0.004, "unit": "µg/mL"}]}, {"smiles": "Cc1cccc(NC(=O)N[C@@H]2N=C(c3ccccc3)c3ccccc3N(CC(=O)c3ccccc3C)C2=O)c1", "note": "[YM022]", "values": [{"measurement": "Absorption on oral administration", "setting": "[4]", "result": "good absorption"}, {"measurement": "Mean diameter of colloidal particles", "setting": "[5]", "result": 160, "unit": "nm"}]}]}
